Assay results: ChEMBL document CHEMBL1201862, “PubChem BioAssay data set” (2004)
Activity calls are given as the source filed them.

How the values were obtained:
[1] = Luminescence Cell-Based Dose Confirmation HTS to Identify Activators of 5'UTR Stem-Loop Driven Alpha-Synuclein mRNA Translation in H4 Neuroglioblastoma Cells. [Related pubchem assays: 1829 (Project Summary), 1814 (Primary HTS)]; format: functional
[2] = Luminescence Cell-Based Dose Response HTS to Identify Activators of Luciferase Translation or Activity in H4 […] Cells. [Related pubchem assays: 1829 (Project Summary), 1814 (Primary HTS)]; format: functional
H4 = assay: Luminescence Cell-Based Dose Response HTS to Identify Activators of 5'UTR Stem-Loop Driven Prion Protein mRNA Translation in H4 Neuroglioblastoma Cells. [Related pubchem assays: 1829 (Project Summary), 1814 (Primary HTS)]; format: functional; details: Homo sapiens
[3] = molecular target: 26S proteasome non-ATPase regulatory subunit 14 (Homo sapiens, UniProt O00487); assay: inhibition of proteasome subunit RPN11 – biochemical, fluorescence polarization, uHTS hits, confirmation (AID 602368); format: functional
[4] = molecular target: 72 kDa type IV collagenase (Homo sapiens, UniProt P08253); assay: Dose Response validation of uHTS RPN11 inhibitor hits using a MMP-2 Fluorescence assay.; format: functional
Prothrombin = Prothrombin (Bos taurus, UniProt P00735); assay: thrombin inhibition, dose response, biochemical, fluorescence polarization, uHTS hits (AID 602369); format: functional
[5] = molecular target: T1, Endoribonuclease toxin MazF (Escherichia coli K-12, UniProt P0AE70); assay: MazF toxin RNase activators, dose response, biochemical, fluorescence, single-stranded RNA substrate, uHTS hits (AID 588481); format: functional
T1 sequence (P0AE70 whole entry): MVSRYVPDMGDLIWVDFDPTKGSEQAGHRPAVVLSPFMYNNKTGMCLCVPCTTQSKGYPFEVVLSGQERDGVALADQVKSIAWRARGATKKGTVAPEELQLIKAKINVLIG

[6] = molecular target: T1, Endoribonuclease toxin MazF; assay: fluorescent RNA oligo signal without MazF, dose response, counter-screen for MazEF activator project, biochemical, fluorescence, single-stranded RNase substrate (AID 588502); format: functional
[7] = NIH-3T3 fibroblast cytotoxicity, dose response, cytotoxicity control, cell-based, fluorescence, Alamar Blue, secondary assay (AID 2327); format: functional;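 note: NIH-3T3 mouse fibroblasts cultured with fluconazole at 8 µg/mL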
[8] = C. albicans growth with fluconazole, confirmation, fluorescence, retest (AID 2467); format: functional, cell-based
[9] = THP-1 cell cytotoxicity, dose response, cytotoxicity control for non-replicating M. tuberculosis project (AID 489025); format: functional
[10] = Vero E6 cell cytotoxicity, dose response, cytotoxicity control for non-replicating M. tuberculosis project, secondary assay (AID 492998); format: functional, VeroE6; details: Vero C1008
Aminopeptidase N = molecular target: T2, Aminopeptidase N (Plasmodium falciparum FcB1/Columbia, UniProt O96935); assay: P. falciparum M1AAP inhibitors, biochemical, fluorogenic H-Leu-NHMec substrate, 1536-well (AID 1445); design: species or system Plasmodium falciparum 3D7, 3D7
T2 sequence (O96935 whole entry): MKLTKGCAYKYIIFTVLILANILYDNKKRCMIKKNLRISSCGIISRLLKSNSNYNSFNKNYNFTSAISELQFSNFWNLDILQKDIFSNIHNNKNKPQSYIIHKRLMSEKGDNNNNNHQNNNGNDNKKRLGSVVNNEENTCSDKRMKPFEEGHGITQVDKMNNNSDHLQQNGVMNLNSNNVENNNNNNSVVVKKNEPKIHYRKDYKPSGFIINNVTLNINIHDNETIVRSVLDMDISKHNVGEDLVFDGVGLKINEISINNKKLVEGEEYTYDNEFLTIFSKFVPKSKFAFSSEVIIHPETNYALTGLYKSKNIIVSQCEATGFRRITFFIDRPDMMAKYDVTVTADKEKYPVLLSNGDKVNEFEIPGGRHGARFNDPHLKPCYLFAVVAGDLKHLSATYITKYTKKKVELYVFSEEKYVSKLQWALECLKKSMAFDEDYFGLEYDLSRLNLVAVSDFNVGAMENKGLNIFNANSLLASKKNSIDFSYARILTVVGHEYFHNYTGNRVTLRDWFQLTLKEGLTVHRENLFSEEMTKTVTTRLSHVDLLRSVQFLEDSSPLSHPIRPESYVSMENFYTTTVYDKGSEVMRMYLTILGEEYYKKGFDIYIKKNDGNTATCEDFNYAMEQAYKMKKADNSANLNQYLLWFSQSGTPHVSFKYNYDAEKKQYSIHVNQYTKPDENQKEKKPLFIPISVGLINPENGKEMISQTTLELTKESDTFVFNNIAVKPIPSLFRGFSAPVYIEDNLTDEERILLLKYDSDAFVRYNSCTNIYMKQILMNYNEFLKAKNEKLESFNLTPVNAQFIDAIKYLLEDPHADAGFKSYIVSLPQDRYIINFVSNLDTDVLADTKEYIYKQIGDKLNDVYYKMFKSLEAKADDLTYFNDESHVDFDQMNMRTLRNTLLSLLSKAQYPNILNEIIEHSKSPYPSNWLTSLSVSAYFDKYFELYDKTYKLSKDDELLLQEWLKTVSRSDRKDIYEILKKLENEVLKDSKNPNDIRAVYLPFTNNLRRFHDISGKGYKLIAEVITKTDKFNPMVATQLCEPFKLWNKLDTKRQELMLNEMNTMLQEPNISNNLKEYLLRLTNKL

[11] = inhibitors of intracellular T. cruzi replication, confirmation, NIH3T3 host cells, beta-gal luminescence (AID 2044); format: functional, cell-based;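 note: intracellular parasites grown in NIH/3T3 mouse fibroblasts as host cells; luminescent beta-galactosidase reporter signal from transgenic T. cruzi replicating inside host cells; inhibitors lower the luminescence signal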
[12] = cytotoxicity toward NIH3T3 fibroblasts, dose response, counter-screen, cell-based, ATP luminescence, mouse fibroblasts (AID 2010); format: functional;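 note: cells exposed to compound for about 90 hours before reading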
[13] = molecular target: T3, Apoptotic protease-activating factor 1 (Homo sapiens, UniProt O14727); format: functional
T3 sequence (O14727 whole entry): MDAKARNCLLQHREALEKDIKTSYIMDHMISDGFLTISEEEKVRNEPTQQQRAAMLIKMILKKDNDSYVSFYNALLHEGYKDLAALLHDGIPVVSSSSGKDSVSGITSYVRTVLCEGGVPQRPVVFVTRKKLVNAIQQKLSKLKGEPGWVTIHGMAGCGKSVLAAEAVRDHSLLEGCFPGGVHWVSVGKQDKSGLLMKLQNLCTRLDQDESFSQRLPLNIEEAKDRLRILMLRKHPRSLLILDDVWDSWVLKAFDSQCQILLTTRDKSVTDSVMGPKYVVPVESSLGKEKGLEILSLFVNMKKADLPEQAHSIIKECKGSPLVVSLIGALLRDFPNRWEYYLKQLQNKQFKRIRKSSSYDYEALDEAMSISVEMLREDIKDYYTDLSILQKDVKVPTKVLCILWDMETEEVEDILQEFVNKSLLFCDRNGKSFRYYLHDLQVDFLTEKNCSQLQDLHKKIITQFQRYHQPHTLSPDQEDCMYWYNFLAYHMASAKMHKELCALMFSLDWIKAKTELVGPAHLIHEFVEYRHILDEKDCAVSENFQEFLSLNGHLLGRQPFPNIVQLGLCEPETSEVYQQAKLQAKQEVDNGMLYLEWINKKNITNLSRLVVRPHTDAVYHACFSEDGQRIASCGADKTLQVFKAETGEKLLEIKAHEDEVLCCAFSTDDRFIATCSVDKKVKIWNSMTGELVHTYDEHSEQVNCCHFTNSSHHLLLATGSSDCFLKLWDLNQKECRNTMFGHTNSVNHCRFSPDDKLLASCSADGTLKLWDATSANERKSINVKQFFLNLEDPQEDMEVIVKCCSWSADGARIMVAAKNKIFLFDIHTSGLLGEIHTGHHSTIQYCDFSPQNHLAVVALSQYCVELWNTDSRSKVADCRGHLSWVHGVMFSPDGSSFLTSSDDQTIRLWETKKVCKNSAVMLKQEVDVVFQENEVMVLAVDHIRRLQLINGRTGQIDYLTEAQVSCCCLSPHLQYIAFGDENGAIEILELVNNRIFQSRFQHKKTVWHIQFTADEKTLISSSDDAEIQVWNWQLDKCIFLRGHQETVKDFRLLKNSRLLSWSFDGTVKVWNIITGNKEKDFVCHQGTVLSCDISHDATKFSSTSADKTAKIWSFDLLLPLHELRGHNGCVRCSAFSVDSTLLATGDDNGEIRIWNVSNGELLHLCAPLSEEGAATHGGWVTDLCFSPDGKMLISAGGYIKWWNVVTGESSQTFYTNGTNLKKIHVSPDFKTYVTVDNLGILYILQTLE

[14] = molecular target: Dual specificity tyrosine-phosphorylation-regulated kinase 1A (Rattus norvegicus, UniProt Q63470); format: biochemical, Homo sapiens
cells = format: functional
Cytochrome P450 3A4 = Cytochrome P450 3A4 (Homo sapiens, UniProt P08684); details: Potency;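 note: confirmatory qHTS run detecting inhibitors and substrates of CYP3A4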
Vero = Vero cell cytotoxicity, cytotoxicity control for flavivirus capping enzyme inhibitors (AID 588742); format: functional; details: Chlorocebus sabaeus
Genome polyprotein = Genome polyprotein (dengue virus type 2, UniProt P29990); assay: Dengue-2 NS5 methyltransferase inhibitors, primary screen, biochemical, confirmation dose response (AID 588689); format: functional
[15] = molecular target: T4, Corticotropin-releasing factor receptor 2/Corticotropin-releasing factor-binding protein (Homo sapiens, UniProt P24387+Q13324); assay: activators of CRF receptor 2 with binding protein – uHTS hits, confirmation (AID 602473); format: functional; details: read-out: EC50_Mean
T4 sequence (Q13324 whole entry): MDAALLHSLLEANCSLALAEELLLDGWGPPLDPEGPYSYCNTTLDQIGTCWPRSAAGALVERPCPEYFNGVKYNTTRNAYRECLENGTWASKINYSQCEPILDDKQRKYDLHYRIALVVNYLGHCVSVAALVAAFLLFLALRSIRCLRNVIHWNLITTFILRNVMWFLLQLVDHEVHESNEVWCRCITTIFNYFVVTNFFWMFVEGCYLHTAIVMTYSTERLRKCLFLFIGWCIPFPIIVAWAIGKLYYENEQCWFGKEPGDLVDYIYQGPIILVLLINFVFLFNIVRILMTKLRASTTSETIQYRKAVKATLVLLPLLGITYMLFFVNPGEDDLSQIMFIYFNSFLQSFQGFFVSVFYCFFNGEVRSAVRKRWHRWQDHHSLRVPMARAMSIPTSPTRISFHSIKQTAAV
T4 sequence (P24387 whole entry): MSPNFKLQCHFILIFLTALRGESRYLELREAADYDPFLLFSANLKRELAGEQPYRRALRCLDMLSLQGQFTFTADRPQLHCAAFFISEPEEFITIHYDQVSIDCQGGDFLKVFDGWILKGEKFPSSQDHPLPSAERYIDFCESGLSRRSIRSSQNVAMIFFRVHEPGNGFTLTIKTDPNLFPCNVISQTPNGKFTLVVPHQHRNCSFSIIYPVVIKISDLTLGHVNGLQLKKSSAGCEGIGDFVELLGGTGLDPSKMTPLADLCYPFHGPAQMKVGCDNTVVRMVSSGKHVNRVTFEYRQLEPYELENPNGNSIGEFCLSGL

Sequence of Cytochrome P450 3A4 (P08684 whole entry): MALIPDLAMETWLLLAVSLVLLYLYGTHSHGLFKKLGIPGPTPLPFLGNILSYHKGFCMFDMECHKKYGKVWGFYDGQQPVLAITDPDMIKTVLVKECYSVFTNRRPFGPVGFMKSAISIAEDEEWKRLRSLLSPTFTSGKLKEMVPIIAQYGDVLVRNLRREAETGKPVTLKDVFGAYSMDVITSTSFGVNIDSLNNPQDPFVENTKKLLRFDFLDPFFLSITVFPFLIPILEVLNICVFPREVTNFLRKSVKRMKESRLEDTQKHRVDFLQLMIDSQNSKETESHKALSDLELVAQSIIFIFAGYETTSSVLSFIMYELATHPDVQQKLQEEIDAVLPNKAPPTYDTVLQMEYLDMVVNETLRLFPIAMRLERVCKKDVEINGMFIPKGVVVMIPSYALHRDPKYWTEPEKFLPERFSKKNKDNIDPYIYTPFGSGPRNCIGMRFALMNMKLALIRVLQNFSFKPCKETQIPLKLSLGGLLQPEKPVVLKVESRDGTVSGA
Sequence of 26S proteasome non-ATPase regulatory subunit 14 (O00487 whole entry): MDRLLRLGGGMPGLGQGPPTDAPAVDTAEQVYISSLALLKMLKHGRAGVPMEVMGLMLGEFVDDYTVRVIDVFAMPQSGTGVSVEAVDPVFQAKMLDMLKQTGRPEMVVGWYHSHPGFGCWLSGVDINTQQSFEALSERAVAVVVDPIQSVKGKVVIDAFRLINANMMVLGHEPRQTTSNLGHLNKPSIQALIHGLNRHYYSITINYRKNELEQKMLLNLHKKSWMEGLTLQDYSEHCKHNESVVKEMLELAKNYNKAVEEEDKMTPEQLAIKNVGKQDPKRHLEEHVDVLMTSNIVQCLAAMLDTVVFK
Sequence of 72 kDa type IV collagenase (P08253 whole entry): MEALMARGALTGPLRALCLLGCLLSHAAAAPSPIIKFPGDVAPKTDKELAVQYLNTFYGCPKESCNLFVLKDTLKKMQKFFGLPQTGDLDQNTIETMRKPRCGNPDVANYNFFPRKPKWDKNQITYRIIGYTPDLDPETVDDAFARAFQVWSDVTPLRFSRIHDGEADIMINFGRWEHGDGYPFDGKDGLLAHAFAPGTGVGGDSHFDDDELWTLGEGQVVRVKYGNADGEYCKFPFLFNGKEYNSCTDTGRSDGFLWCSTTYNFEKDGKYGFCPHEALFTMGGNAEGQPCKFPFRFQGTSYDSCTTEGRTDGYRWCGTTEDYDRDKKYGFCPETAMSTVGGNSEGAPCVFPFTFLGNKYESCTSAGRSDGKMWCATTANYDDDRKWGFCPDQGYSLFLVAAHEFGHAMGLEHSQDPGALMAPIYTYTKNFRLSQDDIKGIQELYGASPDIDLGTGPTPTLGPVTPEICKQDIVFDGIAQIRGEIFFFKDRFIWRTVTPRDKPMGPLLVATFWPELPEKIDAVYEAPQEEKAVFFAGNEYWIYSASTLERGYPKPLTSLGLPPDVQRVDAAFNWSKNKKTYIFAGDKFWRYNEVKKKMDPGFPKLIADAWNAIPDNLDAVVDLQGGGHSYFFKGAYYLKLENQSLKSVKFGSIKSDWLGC
Sequence of Genome polyprotein (P29990 2492-3391 limits assumed): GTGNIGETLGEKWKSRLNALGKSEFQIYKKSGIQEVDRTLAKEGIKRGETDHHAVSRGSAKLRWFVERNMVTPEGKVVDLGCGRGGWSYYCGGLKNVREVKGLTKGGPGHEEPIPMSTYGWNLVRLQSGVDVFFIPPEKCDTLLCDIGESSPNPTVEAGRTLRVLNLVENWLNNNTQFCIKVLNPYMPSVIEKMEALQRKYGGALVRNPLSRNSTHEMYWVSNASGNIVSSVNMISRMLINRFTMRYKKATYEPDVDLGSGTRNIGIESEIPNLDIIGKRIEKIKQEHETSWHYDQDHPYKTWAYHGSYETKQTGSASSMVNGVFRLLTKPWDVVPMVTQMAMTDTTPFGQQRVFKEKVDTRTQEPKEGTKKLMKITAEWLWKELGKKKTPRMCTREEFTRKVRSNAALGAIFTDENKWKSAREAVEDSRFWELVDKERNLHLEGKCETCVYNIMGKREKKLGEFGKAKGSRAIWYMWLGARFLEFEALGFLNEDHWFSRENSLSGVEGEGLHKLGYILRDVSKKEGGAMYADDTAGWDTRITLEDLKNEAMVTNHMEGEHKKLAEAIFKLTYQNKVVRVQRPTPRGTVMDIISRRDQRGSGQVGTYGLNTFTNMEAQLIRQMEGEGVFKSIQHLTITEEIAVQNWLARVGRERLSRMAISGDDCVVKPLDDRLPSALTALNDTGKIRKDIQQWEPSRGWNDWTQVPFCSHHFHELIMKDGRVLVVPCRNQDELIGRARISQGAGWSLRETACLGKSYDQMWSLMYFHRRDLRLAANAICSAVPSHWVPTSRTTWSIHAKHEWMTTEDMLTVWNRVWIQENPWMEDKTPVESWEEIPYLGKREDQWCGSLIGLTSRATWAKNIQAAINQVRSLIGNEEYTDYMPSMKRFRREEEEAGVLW

## CCOc1ccc2nc(NC(=O)Cn3[nH]c(=O)c4ccccc4c3=O)sc2c1
[1]
  EC50: > 120 µM (not active)
[2]
  EC50: 5.14 µM (active)
H4
  EC50: 54.3 µM (active)
[3]
  IC50: 39.7 µM (active)
[4]
  IC50: > 100 µM (inactive)
Prothrombin
  IC50: 90.4 µM (active)

## COc1ccc2c(C)cc(SCC(=O)Nc3cc(C(N)=O)cc(C(N)=O)c3)nc2c1
[5]
  EC50: > 99 µM (inactive)
[6]
  EC50: > 99 µM (inactive)

## O=C(Nc1ncc([N+](=O)[O-])s1)c1cccs1
[7]
  EC50: > 150 µM (inactive)
[8]
  EC50: 69 nM (active)
[9]
  CC50: 34.3 µM (active)
[10]
  CC50: > 20 µM (active)

## CN(C)c1oc(/C=C/c2ccccc2)nc1C#N
Aminopeptidase N
  IC50: 23.9 µM (active)

## Cc1cc(C(=O)NN=C(S)NCc2ccco2)nn1C
Aminopeptidase N
  IC50: 57.7 µM (active)

## O=C(Nc1cccc([N+](=O)[O-])c1)Nc1ccc2c(c1)CCC2
[11]
  EC50: 3.27 µM (active)
[12]
  EC50: > 60 µM (not active)
[5]
  EC50: > 99 µM (inactive)
[6]
  EC50: > 99 µM (inactive)

## COc1ccc(-c2nc3nc(C)c(Cc4ccccc4)c(O)n3n2)cc1
[13]
  IC50: 30.6 µM (active)

## O=C(NCCN1CCOCC1)c1cc2c(=O)n3ccccc3nc2n1Cc1ccccc1
Aminopeptidase N
  IC50: 102 µM (active)

## Cc1ccccc1NC(=O)C1c2cccc[n+]2CC(=O)N1c1c(C)cccc1C (stereo not given)
[5]
  EC50: > 99 µM (inactive)
[6]
  EC50: > 99 µM (inactive)

## COc1ccc(/C=C2\SC(N3CCCCC3)=NC2=O)cc1
[14]
  AC50: 308 nM (active)

## COc1ccc(OC)c(NC(=O)C(=O)NNC(=O)C23CC4CC(CC(C4)C2)C3)c1
[9]
  CC50: > 40 µM (active)
[10]
  CC50: > 20 µM (active)
cells
  IC50: 8.62 µM (active)

## CCc1nc2oc3ccccc3c(=O)c2c(=O)n1-c1ccc(C)cc1
[3]
  IC50: 24.5 µM (active)
[4]
  IC50: > 100 µM (inactive)
Prothrombin
  IC50: 87.5 µM (active)

## CCOC(=O)OCC1OC(C#Cc2ccc(C)cc2C)C=CC1OC(=O)OCC (stereo not given)
Cytochrome P450 3A4
  AC50: 3.98 µM (inconclusive)

## Cc1cc(Br)c(Cl)cc1NC(=O)CN1C(=O)C2C3CC(c4ccccc4)C(C3)C2C1=O (stereo not given)
[11]
  EC50: 2.59 µM (active)
[12]
  EC50: 7.41 µM (active)
Vero
  CC50: > 40 µM (active)

## CCNC(=S)NCC
Cytochrome P450 3A4
  AC50: 6.31 µM (inconclusive)

## Cc1ccc(S(=O)(=O)N2[C@@H](c3ccc(Br)cc3)C(C(=O)O)=CC[C@H]2c2ccc(C(C)C)cc2)cc1
Vero
  CC50: > 40 µM (active)
Genome polyprotein
  IC50: 32.9 µM (active)

## COc1ccc(/C=N/Nc2ccc([N+](=O)[O-])cc2S(=O)(=O)N2CCN(C)CC2)cc1
[5]
  EC50: > 99 µM (inactive)
[6]
  EC50: 8.43 µM (active)
[15]
  EC50: 6.27 µM (active)

## COc1cc(C/C=C/c2ccccc2)c(OC)cc1O [VIOLASTYRENE]
Cytochrome P450 3A4
  AC50: 39.8 µM (inconclusive)
